Consider one compound from patent US11197863B2, “Inhibitors of polo-like kinase 4 (PLK4) for treating pediatric embryonal tumors” (ANN AND ROBERT H. LURIE CHILDREN'S HOSPITAL OF CHICAGO, priority 2017, dated 2021).

In one data set the target is Aurora kinase B (Homo sapiens, UniProt Q96GD4). To be noted: cited from earlier work.
The next data set relates to MON cells. Briefly: Invasion and migration assays (Transwell). The data set is classed as cell-based, human. The following applies: 100 nM, 24 hr. As for the experimental part: Both migration and invasion were assessed using a 24-well Transwell chamber system (Corning, USA).[35] MON cells were plated at 20,000 per well for cell migration and at 50,000 per well coated with matrigel (200 μg/ml, 3 hr of solidification) for cell invasion. HFF-SCC058 cells were used as negative controls. […] All experiments were performed in triplicates.

For data set [1], the system named is HFF-SCC058 human fibroblasts. Briefly: Cell cycle analysis by flow cytometry (polyploidy). The data set is classed as cell-based. On the procedure:
Cell cycle evaluation was performed by staining the cells with PI (Thermo Fisher Scientific, USA) according to manufacturer's instructions. […] Data was analyzed using Modfit LT from Verity Software House. Experiments were performed in triplicates.
(In flow cytometry, cells or beads pass a laser one at a time.)

The test system of data set [2] is MON, G401, BT-12, and BT-16 cells. Briefly: MTT cell proliferation assay, rhabdoid tumor cell lines. The data set is classed as cell-based, human. The following applies: all cell lines evaluated; 10-500 nM, 48 and 72 hr. As for the experimental part:
The expression of PLK4 (Hs00179514_m1) was verified by TaqMan GE assays (Thermo Fisher Scientific, USA) using the housekeeping gene GAPDH (Hs02758991_g1) as reference as previously described.[30] PLK4 inhibitor. […] Cell proliferation was evaluated by MTT assay and cell survival was evaluated by clonogenic assays using increasing concentrations of the drug in different time-points, as described below.
To evaluate cell proliferation, we used TACS MTT Cell Proliferation Assays (Trevigen, USA). We plated 2×10^3 cells on each well of a 96-well plate and the absorbance was measured after 48 and 72 hr at concentrations of 10, 50, 100, 200, and 500 nM. Each experiment was performed in triplicates.
On the technique in general: Formazan colour is commonly taken as a measure of viable cells.

The test system of data set [3] is G401, BT-12, BT-16, DAOY and D283 cell lines. Briefly: Immunofluorescence for gamma-tubulin (centriole number). It counts as cell-based, human. On the procedure:
(§1) The cells were then blocked in blocking buffer (5% BSA (Jackson Immuno Research Laboratories Inc., USA) in PBST) for 1 hour at RT. The primary antibody ([…] 1:500, Sigma, USA) diluted in 1% BSA in PBST was then added and incubated at 4° C. overnight. Then, the cells were washed with 1×PBS thrice. Secondary antibody (Anti-Rabbit IgG (H+L) F (ab′) 2, 1:500, Sigma, USA) diluted in 1% BSA in PBST was added and incubated at RT for 2 hours. Three time washes with IX PBS were performed. Then, 1 mL of DAPI (Thermo Fisher Scientific, USA) in PBS (0.5 μl of DAPI in 10 ml PBS) was added to the cells and incubated for 10 min at RT. Finally, 3 time washes with 1×PBS were performed and slides were mounted using Mounting Medium (Thermo Fisher Scientific, USA).

In a further data set the test system is MON rhabdoid cells. The data set is described as above. The data set is classed as cell-based, human. The following applies: 48 hours. On the procedure:
as §1

The conditions of data set [4]: phase I, adults, preliminary results; cited from earlier work.
The subject of data set [5] is MON, G401, BT-12, BT-16 DAOY and D283 cells. Briefly: Senescence beta galactosidase assay. The data set is classed as cell-based, human. To be noted: 100 nM, 48 hours; all cell lines. On the procedure: For each cell line, cells were seeded in 6-well plates in triplicates with 100,000 cells per well. Treatment medium was added the next day and incubated for 48 or 72 hrs. After incubation, cells were washed twice with 1×PBS and 1 mL of the Fixation Buffer from the kit was added to each well of the plate and incubated at RT for 5 min. Cells were washed with 1×PBS and 1 mL of staining solution from the kit was added to each well and incubated at 37° C. without CO2 overnight. The next day, the cells were washed with 1×PBS and the numbers of blue stained cells (which indicate senescent cells) and unstained cells were counted in image J (www.imagej.nih.gov). The percentage of senescent cells was calculated.

The test system of a further data set is breast cancer cells. The following applies: Sampson et al.; cited from earlier work.
The subject of a further data set is DAOY MB cells. Briefly: Confluency assay (IncuCyte ZOOM). The data set is classed as cell-based, human. To be noted: increasing concentrations, 48 hour period, p-value=0.029. As for the experimental part:
For further evaluation of the effect of the PLK4 inhibitor over tumor cell proliferation, confluency was measured over a 48 hour period. MON, BT-12, G401 and DAOY cells were plated in 96-well plates with a density of 6×10^4 per well. […] Confluency was monitored for 48 hours by taking phase contrast images every 2 hours and measured using an IncuCyte ZOOM system (Essen BioScience, USA). Experiments were performed in triplicates.

Data set [6] relates to MON, G401, BT-12 and BT-16 cells. Briefly: Apoptosis by flow cytometry (Annexin V / PI). The data set is classed as cell-based, human. The following applies: 100 nM, 48 hours vs 0.1% DMSO. On the procedure:
Cells were treated with various concentrations of […] and 0.1% DMSO (control) for evaluation of the impact of treatment on induction of apoptosis. Live cells were stained with Annexin V as an indicator of early apoptosis and Propidium Iodide (PI—Thermo Fisher Scientific, USA) for detection of late apoptosis and necrosis, according to manufacturer's instructions (Thermo Fisher Scientific, USA). Flow cytometric analysis was performed on a BD Fortessa instrument (BD Biosciences, USA) within an hour of staining. Data was analyzed using Modfit LT from Verity Software House. All experiments were performed in triplicates.

The subject of data set [7] is BT-12 AT/RT intracranial xenografts. Briefly: Intracranial AT/RT xenograft tumors. The data set is classed as in vivo, mice. The following applies: 7.5 mg/kg/day oral for 21 days. From the text: Six-week-old female athymic mice (rnu/rnu genotype, BALB/c background) were purchased from Envigo (Harlan) and housed under aseptic conditions, which included filtered air and sterilized food, water, bedding, and cages. The Northwestern University Institutional Animal Care and Use Committee approved all animal protocols. The BT-12 AT/RT cell line, which has high expression of PLK4 was modified to express luciferase and injected intracranially in nude mice as previously described. Each mouse was injected with a cell suspension (10,000 cells/3 μL) into the right caudate putamen of the brain. […] Bioluminescence monitoring was performed twice a week throughout the course of the experiment for quantitative measurement of tumor growth and response to therapy. Kaplan-Meier survival analysis was performed to assess survival benefit within the treatment group as compared to controls. Differences between survival curves were calculated using a log-rank test. Brains were resected at 6 hours following completion of the treatment and placed in 4% paraformaldthyde for subsequent histological examination.

A further data set deals with MUSK (Homo sapiens, UniProt O15146). Briefly: Kinase activity screening (SelectScreen Kinase Profiling). The data set is classed as biochemical. To be noted: 10-point titration.
Chain of MUSK (O15146 24-869): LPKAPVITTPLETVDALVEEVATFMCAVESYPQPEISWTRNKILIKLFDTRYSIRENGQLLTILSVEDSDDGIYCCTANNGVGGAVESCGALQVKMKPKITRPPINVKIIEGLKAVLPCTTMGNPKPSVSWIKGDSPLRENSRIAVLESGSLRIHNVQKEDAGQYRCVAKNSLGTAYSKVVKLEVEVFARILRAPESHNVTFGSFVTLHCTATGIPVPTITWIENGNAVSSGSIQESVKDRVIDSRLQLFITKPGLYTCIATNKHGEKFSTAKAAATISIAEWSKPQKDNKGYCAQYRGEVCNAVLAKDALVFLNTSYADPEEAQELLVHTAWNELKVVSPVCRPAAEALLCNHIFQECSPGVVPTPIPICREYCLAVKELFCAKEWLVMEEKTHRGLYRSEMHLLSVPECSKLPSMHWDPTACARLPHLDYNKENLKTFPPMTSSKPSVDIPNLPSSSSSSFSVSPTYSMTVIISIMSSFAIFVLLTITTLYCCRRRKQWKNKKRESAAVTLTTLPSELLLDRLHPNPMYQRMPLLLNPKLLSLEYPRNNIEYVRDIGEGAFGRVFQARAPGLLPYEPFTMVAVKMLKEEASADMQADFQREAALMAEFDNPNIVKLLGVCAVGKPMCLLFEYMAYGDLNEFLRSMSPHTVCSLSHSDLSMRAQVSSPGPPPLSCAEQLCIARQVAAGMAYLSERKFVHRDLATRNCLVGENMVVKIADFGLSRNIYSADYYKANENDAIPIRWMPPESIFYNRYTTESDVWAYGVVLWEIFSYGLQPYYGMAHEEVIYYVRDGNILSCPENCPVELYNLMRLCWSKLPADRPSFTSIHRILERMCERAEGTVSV

The structures appear in SMILES notation. pIC50: −log10 of the molar value.

Chain of Aurora kinase B (Q96GD4 whole entry, species assumed): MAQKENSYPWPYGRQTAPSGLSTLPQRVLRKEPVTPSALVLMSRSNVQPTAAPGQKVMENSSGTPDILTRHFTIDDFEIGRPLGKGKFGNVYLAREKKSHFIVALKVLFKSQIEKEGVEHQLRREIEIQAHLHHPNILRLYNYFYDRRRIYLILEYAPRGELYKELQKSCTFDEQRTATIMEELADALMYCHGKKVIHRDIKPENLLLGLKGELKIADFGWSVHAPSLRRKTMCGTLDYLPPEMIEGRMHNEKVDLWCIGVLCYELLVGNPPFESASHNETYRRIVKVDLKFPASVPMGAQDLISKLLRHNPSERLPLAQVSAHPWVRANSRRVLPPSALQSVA
Description for MUSK: These assays utilized various formats appropriate to the kinase, its substrate and its activity. Formats included the Z-LYTE™ Kinase Assay that determines the differential sensitivity of phosphorylated and non-phosphorylated peptide substrates to proteolytic cleavage using a FRET-based readout, the Adapta™ Universal Kinase Assay that employs a homogeneous, fluorescence-based immunoassay for the detection of ADP produced by kinases and the LanthaScreen™ Eu Kinase Binding Assay that utilizes an Alexa Fluor™ conjugated “tracer” and an Eu-labeled anti-tag antibody to measure binding of a compound to the kinase target [62].

Regarding `COc1ccc2c(c1)[C@]1(C[C@H]1c1ccc3c(/C=C/c4ccc(CN5C[C@@H](C)O[C@@H](C)C5)cc4)n[nH]c3c1)C(=O)N2` [CFI-400945], the “activity against Aurora kinase B” value on Aurora kinase B was “certain activity”. In the data set on MON cells, the invasion and migration result was “significant reduction”. In addition, in [1], the polyploidy result is recorded as “not affecting”. Also, in [2], the “cell proliferation (MTT)” value is given as “significant reduction of cell proliferation”. Besides, the centriole number entry is reported as “increase in centriole's number” in data set [3] (100 nM), “significant decrease” in data set [3] (500 nM), “slight increase in centrioles' number” in the data set with MON rhabdoid cells (100 nM) and “significant depletion of centrioles” with MON rhabdoid cells (500 nM). In addition, the tolerability result in data set [4] is given as “well tolerated at doses up to 72 ma”. For the same compound, in data set [5], the senescent cells entry is listed as “significant increase of senescent cells”. The “effect on breast cancer cells” value with breast cancer cells is reported as “cell death”. Also, in the data set with DAOY MB cells, the “delay in reaching confluency (FC)” value was 1.70. In addition, the “cells undergoing cell death (apoptosis)” value in data set [6] is “significantly higher percentage of cells undergoing cell death”. For the same compound, the “growth of intracranial AT/RT tumors (bioluminescence)” value in data set [7] (p=0.0146) is “significantly reduced the growth”. Also, the survival result in data set [7] (p=0.0477, log-rank) is listed as “extended the survival”. Moreover, at MUSK, the pIC50 (in general, −log10 of the IC50, conventionally taken in molar units) was 7.31.
